# Measurements taken from patent US20130052172A1, “METHODS FOR DIAGNOSING AND TREATING CARDIAC DEFECTS” (priority 2011, published 2013).
# Several values for one entry are separate records, joined by “and”; a condition that tells them apart may be missing. Equal values may be shown once. Entries after “also recorded” stand apart in the source; their conditions may differ.
# Experiments:
# leptin = assay: Plasma cytokine analysis (leptin); type: in vivo, rat; conditions: vancomycin in drinking water, d 6 vs d 0
# Description: The concentration of cytokines in blood of rats treated with vancomycin was quantified to identify antibiotic-induced changes. […] Blood samples were kept on ice for 30 min and then centrifuged at 1000 g for 10 min at 4° C. to obtain plasma. Plasma samples were then analyzed to determine the concentration of 23 cytokines (Eve Technologies, Calgary, AB, Canada). Antibiotic was administered continuously via drinking water as described in example 1.
# isolated hearts = assay: In vitro global ischemia/reperfusion of isolated perfused hearts, infarct size and recovery of LVDP; set-up: species or system rat
# Description: For in vitro ischemia/reperfusion studies, hearts were perfused retrogradely, as described previously in Baker, J. et al. (Am. J. Physiol. Heart Circ. Physiol., 2000), the entirety of which is incorporated herein by reference. Briefly, hearts were perfused with modified Krebs-Henseleit buffer (120 mM NaCl, 25 mM NaHCO3, 4.7 mM KCl, 1.2 mM KH2PO4, 1.20 mM MgSO4, 11 mM glucose, and 1.8 mM CaCl2) bubbled with 95% O2-5% CO2 for a 40-minute stabilization period and subjected to 25 minutes of global no-flow ischemia, followed by 180 minutes of reperfusion. Before use, all perfusion fluids were filtered through cellulose acetate membranes with a pore size of 5.0 μm to remove particulate matter. Hearts were kept in temperature-controlled chambers to maintain myocardial temperature at 37° C. A balloon connected to a pressure transducer was inserted into the left ventricle to monitor cardiac function. For some experiments, hearts were stabilized for 25 minutes and then perfused with vancomycin or a mixture of antibiotics for 15 minutes before ischemia/reperfusion. During the initial 40 minute reperfusion period, recovery of mechanical function was measured as left ventricular developed pressure (LVDP) under steady-state conditions and expressed as a percentage of preischemic LVDP. At the end of the 3 hour reperfusion period, hearts were processed and stained with 2,3,5-triphenyltetrazolium chloride dye for IS determination.
# intestinal microbiota = assay: Fecal microbiota abundance by 16S/18S rRNA quantitative PCR; type: in vivo, rat
# Description: In the following example, methods for quantifying microbiota abundance in rat feces are described. Fresh fecal pellets were obtained from each rat prior to (day 0) and at day 6 to 7 post treatment. Pellets were homogenized in 1 ml PBS. 200 μl of homogenate was used for microbial DNA isolation using a QIAamp DNA Stool Mini Kit (Qiagen, Valencia, Calif.). Isolated DNA samples were subjected to quantitative PCR using an iCycler (Bio-Rad, Hercules, Calif.) for microbial population enumeration. PCR reaction mixture consisted of 50% iQ SYBR Green Supermix (Bio-Rad), 0.4 μM forward and reverse primers, and 3.8% template solution in RNase/DNase free water. Primer sets specific for 16s and 18s rRNA genes of particular microbial phylum, class, genus, and species (M. smithii and L. plantarum) along with 20 reaction temperature and reference strains are detailed in FIG. 2 and Table 1.
# [1] = system: metabolites known to be modified by intestinal microbiota; assay: Metabolomic mass spec analysis of blood metabolites; type: in vivo, rat; conditions: rats treated for 7 days
# From the text: In this example, methods for assaying metabolite levels using mass spectrometry are described. Each sample received was accessioned into the Metabolon Laboratory Information Management System (LIMS) and was assigned by the LIMS a unique identifier, which was associated with the original source identifier only. This identifier was used to track all sample handling, tasks, results etc. The samples (and all derived aliquots) were bar-coded and tracked by the LIMS system. All portions of any sample were automatically assigned their own unique identifiers by the LIMS when a new task was created; the relationship of these samples was also tracked. All samples were maintained at −80° C. until processed.
# The sample preparation process was carried out using the automated MicroLab STAR® system from Hamilton Company. Recovery standards were added prior to the first step in the extraction process for Quality Control (QC) purposes. […]
# The LC/MS portion of the platform was based on a Waters ACQUITY UPLC and a Thermo-Finnigan LTQ mass spectrometer, which consisted of an electrospray ionization (ESI) source and linear ion-trap (LIT) mass analyzer. […] One aliquot was analyzed using acidic positive ion optimized conditions and the other using basic negative ion optimized conditions in two independent injections using separate dedicated columns. […]
smiles,measurement,setting,value
"CN[C@H](CC(C)C)C(=O)N[C@H]1C(=O)N[C@@H](CC(N)=O)C(=O)N[C@H]2C(=O)N[C@H]3C(=O)N[C@H](C(=O)N[C@H](C(=O)O)c4cc(O)cc(O)c4-c4cc3ccc4O)[C@H](O)c3ccc(c(Cl)c3)Oc3cc2cc(c3O[C@@H]2O[C@H](CO)[C@@H](O)[C@H](O)[C@H]2O[C@H]2C[C@](C)(N)[C@H](O)[C@H](C)O2)Oc2ccc(cc2Cl)[C@H]1O [vancomycin, Vancomycin]",decrease in circulating leptin,leptin,38±4% and 38%
same,effect on IS when added directly to coronary perfusate,"isolated hearts; 1 μM in perfusate, in vitro ischemia/reperfusion",no reduction in IS; also recorded: no effect on severity of myocardial infarction; also recorded: did not reduce IS in vitro
same,effect on infarct size of isolated hearts,"isolated hearts; antibiotic added to the drinking water, then excluded from coronary circulation",reduced IS
same,decrease in IS,"isolated hearts; antibiotic in drinking water, then excluded from coronary perfusate, in vitro ischemia/reperfusion",29%
same,time after treatment ceased at which cardioprotection was lost,isolated hearts; vancomycin in drinking water,3 days
same,time of treatment within which cardioprotection was established,isolated hearts; vancomycin in drinking water,≤ 2 days
same,total bacterial/microbial numbers in feces,"intestinal microbiota; oral antibiotic in drinking water, Dahl S rats",reduced total bacterial numbers; also recorded: reduced total microbial numbers; also recorded: reduce overall bacterial numbers
same,change of Bacilli abundance in feces,intestinal microbiota; oral antibiotic treatment,increased two fold
same,change of Lactobacillales abundance in feces,intestinal microbiota; oral antibiotic treatment,increase abundance
same,change of Proteobacteria abundance in feces,intestinal microbiota; oral antibiotic treatment,increase abundance
same,increase of Proteobacteria in feces,intestinal microbiota; oral antibiotic treatment,120 fold
same,"metabolites of tryptophan, phenylalanine and tyrosine in blood",[1],decreased metabolites known to be modified by intestinal microbiota
same,phenyllactate in blood,[1],increased
